Data set [1] has as its system IL-13-induced STAT6 phosphorylation in BEAS-2B cells. Description: Assay 2: cellular JAK potency, IL-13-induced STAT6 phosphorylation in BEAS-2B cells. The data set is classed as cell-based. Particulars: Homo sapiens, read-out: pIC50 for inhibition of IL-13 induced STAT6 phosphorylation (converted). Here is the method: Assay 2: Cellular JAK Potency Assay: Inhibition of IL-13-Induced STAT6 Phosphorylation in BEAS-2B Cells
The cellular potency assay for JAK inhibition was carried out by measuring interleukin-13 (IL-13, R&D Systems) induced STAT6 phosphorylation in BEAS-2B human lung epithelial cells (ATCC). The anti-STAT6 antibody (Cell Signaling Technologies) was conjugated to AlphaScreen acceptor beads (Perkin Elmer), while the anti-pSTAT6 (pTyr641) antibody (Cell Signaling Technologies) was biotinylated using EZ-Link Sulfo-NHS-Biotin (Thermo Scientific).
BEAS-2B cells were grown at 37° C. in a 5% CO2 humidified incubator in 50% DMEM/50% F-12 medium (Life Technologies) supplemented with 10% FBS (Hyclone), 100 U/mL penicillin, 100 μg/mL streptomycin (Life Technologies), and 2 mM GlutaMAX (Life Technologies). […] After a minimum of 2 h incubation, the assay plates were read on the EnVision plate reader. AlphaScreen luminescence signals were recorded and utilized to calculate the percent inhibition values based on DMSO and background controls.
For dose-response analysis, percent inhibition data were plotted vs. compound concentrations, and IC50 values were determined from a 4-parameter robust fit model with the Prism software. Results may also be expressed as the negative logarithm of the IC50 value, pIC50.

The test system of data set [2] is TPA-induced increase in ear thickness. Description: Assay 10: in vivo TPA-induced acute dermatitis model in mice. Also noted: species or system female Balb/c mice. The method, then: Assay 10: In Vivo TPA-Induced Acute Dermatitis Model in Mice
The objective of this assay is to assess the anti-inflammatory effect of compound (I), in a model of acute dermatitis being studied for cutaneous inflammatory conditions such as atopic dermatitis (Dong et al., J Pharmacol Exp Ther, 2013, 344, 436-446).
Topical dermal application of phorbol ester TPA in mice causes an inflammatory response that is characterized by edema and neutrophil influx at the early phase (2-24 h) and by epidermal cell proliferation at the later phase (24-48 h) (Griffiths et al., Agents and Actions, 1988, 25, 344-351). In this model, female Balb/c mice were topically administered with 20 μl/ear of either vehicle or TPA (2.5 μg). For the solution formulation, vehicle (1:7 DMSO:Acetone) or test compound was topically applied 30 min before and 15 min after TPA administration. For the ointment formulation, vehicle or compound (I) (0.5% strength) was applied 30 min before TPA. The degree of inflammation was assessed as the change in ear thickness at 6 hours after TPA application.

Data set [3] can be described thus: Assay 16: Caco-2 permeation assay. It counts as in vitro ADME. Conditions: human, Caco-2, with Verapamil 25 μM (P-gp); as illustrated in Table 13; read-out: permeability class (Caco-2). The method, then: (§1) Assay 16: Caco-2 Permeation Assay The Caco-2 permeation assay was used as an indication of skin permeability. The assay measures the rate at which test compounds in solution permeate a cell monolayer (designed to mimic the tight junction of human small intestinal monolayers). CacoReady 24-well transwell plates were obtained from […], Calif.). The compounds were evaluated at a concentration of 5 μM from 10 mM DMSO stock solutions in duplicate (n=2). The passive permeability of the compounds tested was evaluated using Caco-2 cell monolayers along with Verapamil (25 μM) to inhibit P-gp transport proteins in the apical to basolateral (A-B) direction. The experiment was conducted in a 37° C., 5% CO2 incubator. Caco-2 culture media consisted of standard filtered DMEM, FCS 10%, L-Glutamine 1% and PenStrep 1%. Basal assay plate was prepared by adding 750 μL of transport buffer to A-B wells. A CacoReadyTM plate was prepared by removing the Caco-2 media from the apical wells and replacing with fresh transport media (200 μL repeated for a total of 3 washes). Blank media (200 μL) was then replaced with diluted compound for A-B wells. To begin the incubation, the basal plate was removed from the incubator and the apical section was added on top of it. […] The permeation coefficient (Kp, mean A to B+Verapamil […]) in cm/sec was calculated as dQ (flux)/(dt×Area×concentration).
Background: Caco-2 monolayers are a common model of the intestinal barrier.

Another data set relates to Caco-2 cell monolayers. Description: Assay 16: Caco-2 permeation assay. It counts as in vitro ADME. Particulars: 5 μM, A to B, with Verapamil (25 μM), 120 minutes. Here is the method:
as §1

“Also recorded” adds a separate entry of the source. Where two headings read alike, the source gives them in different places.

For the molecule `CCS(=O)(=O)N1[C@@H]2CCC[C@H]1C[C@H](N(C)c1nc(CO)c(F)c(Nc3cc(C)[nH]n3)n1)C2` [Compound (I), (2-(((1R,3s,5S)-9-(ethylsulfonyl)-9-azabicyclo[3.3.1]nonan-3-yl)(methyl)amino)-5-fluoro-6-((5-methyl-1H-pyrazol-3-yl)amino)pyrimidin-4-yl)methanol], the IC50 in data set [1] is 3.16 nM. Also, the “Inhibition of TPA-induced increase in ear thickness (mean % inh ± SEM (n))” value is listed as 34.9% in data set [2]; 6.6% ± 1.1% in data set [2] (30 μg/ear dosed as solution, 6 hours after TPA); 2.4% ± 0.7% in data set [2] (100 μg/ear dosed as solution, 6 hours after TPA); 35.5% ± 3.1% in data set [2] (300 μg/ear dosed as solution, 6 hours after TPA); 54.8 ± 2.6% in data set [2] (1000 μg/ear dosed as solution (highest dose), 6 hours after TPA); 34.9% ± 3.3% (12) in data set [2] (0.5% Ointment, 20 μl/ear, 30 min before TPA, 6 hours after TPA). For the same molecule, in data set [2] (dosed as a solution), the “effect on TPA-induced increase in ear thickness (in words)” value is “dose-dependent effect; also recorded: dose dependent manner”. Moreover, the Papp A→B at 120 min, 5 μM in data set [3] was above 20 ×10⁻⁶ cm/s. The “Cacoverap Kp” value in the data set with Caco-2 cell monolayers came to 42.3 ×10⁻⁶ cm/s.

The values above are taken from patent publication US10774080B2, “Pyrimidine compound as JAK kinase inhibitor” (THERAVANCE BIOPHARMA R&D IP, LLC, priority 2017, dated 2020).
